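Dose response: 5 concentrations. Exposure: 48 h. Format: 96-well plates. Endpoint: linear interpolation; highest concentration if not reached. GI50 marks 50% less growth.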 Active and inactive are the calls of the source. No stated cut-off is given here; in the data, active = GI50 up to about 1.1 µM and inactive = higher.
What was measured:
Test in all cases: NCI tumour cell line growth inhibition, 48 h
SW-620 = test system: SW-620
HT-29 = test system: HT-29
SR = test system: SR
SN12C = test system: SN12C
CAKI-1 = test system: CAKI-1
SK-MEL-28 = test system: SK-MEL-28
SNB-19 = test system: SNB-19
LOX IMVI = test system: LOX IMVI
NCI-H522 = test system: NCI-H522
Malme-3M = test system: Malme-3M
NCI-H23 = test system: NCI-H23
NCI-H460 = test system: NCI-H460
786-0 = test system: 786-0
K562 = test system: K562
MDA-N = test system: MDA-N
OVCAR-5 = test system: OVCAR-5
A549 = test system: A549
SK-MEL-2 = test system: SK-MEL-2
RXF 393 = test system: RXF 393
RPMI-8226 = test system: RPMI-8226

Row | Compound | GI50 (SW-620) | GI50 (HT-29) | GI50 (SR) | GI50 (SN12C) | GI50 (CAKI-1) | GI50 (SK-MEL-28) | GI50 (SNB-19) | GI50 (LOX IMVI) | GI50 (NCI-H522) | GI50 (Malme-3M) | GI50 (NCI-H23) | GI50 (NCI-H460) | GI50 (786-0) | GI50 (K562) | GI50 (MDA-N) | GI50 (OVCAR-5) | GI50 (A549) | GI50 (SK-MEL-2) | GI50 (RXF 393) | GI50 (RPMI-8226)
1 | Cc1nc2ccc(Cl)cc2c(-n2ccnc2)c1CCn1ccnc1 | 39.4 µM (inactive) | 17.3 µM (inactive) | 0.678 µM (active) | 34 µM (inactive) | 63.1 µM (inactive) | 29.9 µM (inactive) | 53.7 µM (inactive) | 21 µM (inactive) | 22.4 µM (inactive) | 31.1 µM (inactive) | 27.1 µM (inactive) | 23.2 µM (inactive) | 1.69 µM (inactive) | 23.2 µM (inactive) | 25.5 µM (inactive) | 21.5 µM (inactive) | 34.9 µM (inactive) | 19.2 µM (inactive) | 14.1 µM (inactive) | 
2 | COc1ccc(-c2cc(-c3cc4cc(Br)ccc4nc3Cl)c(C#N)c(N)n2)cc1 | > 12.5 µM (inactive) | > 12.5 µM (inactive) | 4.28 µM (inactive) | > 12.5 µM (inactive) | > 12.5 µM (inactive) | > 12.5 µM (inactive) | > 12.5 µM (inactive) | > 12.5 µM (inactive) | > 12.5 µM (inactive) | > 12.5 µM (inactive) | > 12.5 µM (inactive) |  | > 12.5 µM (inactive) | > 12.5 µM (inactive) | > 12.5 µM (inactive) | 10.7 µM (inactive) | > 12.5 µM (inactive) | > 12.5 µM (inactive) | > 12.5 µM (inactive) | > 12.5 µM (inactive)
3 | CN1CCN(c2ccc3[nH]c(-c4ccc5[nH]c(-c6ccc(O)cc6)nc5c4)nc3c2)CC1 | 102 µM (inactive) | 92.7 µM (inactive) | 28.1 µM (inactive) | 127 µM (inactive) | 105 µM (inactive) | 19.8 µM (inactive) | 391 µM (inactive) | 85.5 µM (inactive) | 9.82 µM (inactive) | 2.64 µM (inactive) | 240 µM (inactive) |  | 228 µM (inactive) | 23.3 µM (inactive) | 22.9 µM (inactive) | 473 µM (inactive) | 332 µM (inactive) | > 100 µM (inactive) | 130 µM (inactive) | 
4 | [N-]=[N+]=C(C(=O)N1CCCC1=O)S(=O)(=O)c1ccccc1 | > 100 µM (inactive) | > 10 µM (inactive) | 87.7 µM (inactive) | > 100 µM (inactive) |  | 48.5 µM (inactive) | > 100 µM (inactive) | 42.9 µM (inactive) | 30.9 µM (inactive) | 28.3 µM (inactive) | 72.9 µM (inactive) | 39 µM (inactive) | 97.9 µM (inactive) | 69.5 µM (inactive) | 44 µM (inactive) |  | > 100 µM (inactive) | 62.5 µM (inactive) | 70.6 µM (inactive) | 48.3 µM (inactive)
